Results as given in US4493828A, “Use of thyrotropin releasing hormone and related peptides as poultry growth promotants” (Merck & Co., Inc., priority 1982, dated 1985).

Assays:
[1] = test system: 4-week-old Hubbard×Hubbard cockerels; experiment: Example 2: effect of TRH on growth in 4-week-old male chicks (25 days); type: in vivo, chicken; conditions: TRH (med.) 1.0 μg/bird daily intravenous
Method: Four-week-old Hubbard×Hubbard cockerels were used in this experiment, and average weight was 831.38 g. Synthetic TRH (Beckman Co., CA) was dissolved in saline and given daily by intravenous injection via the brachial vein at 0.1 μg/bird, 1.0 μg/bird, and 10 μg/ bird. Birds were weighed twice a week for 4 weeks. Data were analyzed by least squares of variance, using initial weight as a covariant.

[2] = test system: 4-week-old Hubbard x Hubbard cockerels; experiment: Example 1: effect of TRH on growth in 4-week-old male chicks (17 days); type: in vivo, chicken; conditions: for body weight gain as compared with control (in words): P 0.01
Method: Four-week-old Hubbard x Hubbard cockerels were used in this experiment, and average initial weights were 841.75 g. Synthetic TRH (Beckman Co., Calif.) was dissolved in saline and given daily by intravenous injection via the brachial vein at 0.1 μg/bird, 1.0 μg/bird, and 10.0 μg/bird. Birds were weighed and feed consumption was measured at 2 times a week for 21/2 weeks. Data were analyzed by least squares analyses of variance, using initial weight as a covariant.

[3] = day 18 after start of treatment
[4] = day 18 after start of treatment, p < 0.1
[5] = day 22 after start of treatment
[6] = day 22 after start of treatment, p < 0.05
[7] = day 25 after start of treatment, p<0.025
[8] = 0.1 μg/bird daily intravenous, day 3 after start of treatment
[9] = 0.1 μg/bird daily intravenous, day 7 after start of treatment
[10] = 0.1 μg/bird daily intravenous, day 10 after start of treatment
[11] = 0.1 μg/bird daily intravenous, day 14 after start of treatment
[12] = 0.1 μg/bird daily intravenous, day 17 after start of treatment
[13] = 1.0 μg/bird daily intravenous, day 3 after start of treatment
[14] = 1.0 μg/bird daily intravenous, day 7 after start of treatment
[15] = 1.0 μg/bird daily intravenous, day 10 after start of treatment
[16] = 1.0 μg/bird daily intravenous, day 14 after start of treatment
[17] = 1.0 μg/bird daily intravenous, day 14 after start of treatment, P < 0.01
[18] = 1.0 μg/bird daily intravenous, day 17 after start of treatment, P < 0.01
[19] = 1.0 μg/bird/day, 14 and 17 days after the start of treatment
[20] = 10 μg/bird daily intravenous, day 3 after start of treatment
[21] = 10 μg/bird daily intravenous, day 7 after start of treatment
[22] = 10 μg/bird daily intravenous, day 10 after start of treatment
[23] = 10 μg/bird daily intravenous, day 14 after start of treatment
[24] = 10 μg/bird daily intravenous, day 14 after start of treatment, P < 0.01
[25] = 10 μg/bird daily intravenous, day 17 after start of treatment, P < 0.01
[26] = 10 μg/bird/day, 14 and 17 days after the start of treatment

NC(=O)[C@@H]1CCCN1C(=O)[C@H](Cc1c[nH]cn1)NC(=O)[C@@H]1CCC(=O)N1 [TRH, Glp--His--Pro--NH2]
body weight, percent increased as compared with control ([1]; day 15 after start of treatment): +2.7% | body weight gain, percent increase as compared with control [1, 3]: 6.6% | body weight, percent increased as compared with control [1, 3]: +3.5% | body weight gain [1, 4]: 1018.9 ± 22.9 g | body weight, least squares mean ± standard error of the mean corrected by initial weight [1, 4]: 1860.1 ± 22.8 g | body weight gain, percent increase as compared with control [1, 5]: 7.0% | body weight, percent increased as compared with control [1, 5]: 4.1% | body weight gain [1, 6]: 1250.5 ± 24.8 g | body weight, least squares mean ± standard error of the mean corrected by initial weight [1, 6]: 2091.7 ± 24.8 g | body weight, percent increased as compared with control ([1]; day 25 after start of treatment): 4.6% | body weight gain, percent increase as compared with control ([1]; day 25 after start of treatment (end of experiment)): 7.5% | body weight gain [1, 7]: 1453.2 g | body weight, least squares mean ± standard error of the mean corrected by initial weight [1, 7]: 2294.4 g | body weight gain [2, 8]: 171.7 ± 9.8 g | body weight gain, percent increased as compared with control [2, 8]: +0.6% | body weight, least squares mean ± SEM corrected by initial weight [2, 8]: 1009.3 ± 9.7 g | body weight, percent increased as compared with control [2, 8]: +0.1% | body weight gain [2, 9]: 393.1 ± 14.7 g | body weight gain, percent increased as compared with control [2, 9]: +5.0% | body weight, least squares mean ± SEM corrected by initial weight [2, 9]: 1230.6 ± 14.7 g | body weight, percent increased as compared with control [2, 9]: +1.5% | body weight gain [2, 10]: 569.4 ± 19.7 g | body weight gain, percent increased as compared with control [2, 10]: +5.5% | body weight, least squares mean ± SEM corrected by initial weight [2, 10]: 1406.9 ± 19.7 g | body weight, percent increased as compared with control [2, 10]: +2.2% | body weight gain [2, 11]: 824.3 ± 24.9 g | body weight gain, percent increased as compared with control [2, 11]: +8.9% | body weight, least squares mean ± SEM corrected by initial weight [2, 11]: 1662.1 ± 24.8 g | body weight, percent increased as compared with control [2, 11]: +4.0% | body weight gain [2, 12]: 999.5 ± 27.8 g | body weight gain, percent increased as compared with control [2, 12]: +7.5% | body weight, least squares mean ± SEM corrected by initial weight [2, 12]: 1837.1 ± 27.8 g | body weight, percent increased as compared with control [2, 12]: +3.9% | body weight compared with birds receiving saline injections (in words) ([2]; 0.1 μg/bird/day): slight increase in the body weight | body weight gain [2, 13]: 174.2 ± 9.7 g | body weight gain, percent increased as compared with control [2, 13]: +2.1% | body weight, least squares mean ± SEM corrected by initial weight [2, 13]: 1011.8 ± 9.7 g | body weight, percent increased as compared with control [2, 13]: +0.3% | body weight gain [2, 14]: 409.2 ± 14.6 g | body weight gain, percent increased as compared with control [2, 14]: +9.3% | body weight, least squares mean ± SEM corrected by initial weight [2, 14]: 1246.7 ± 14.6 g | body weight, percent increased as compared with control [2, 14]: +2.9% | body weight gain [2, 15]: 582.9 ± 19.6 g | body weight gain, percent increased as compared with control [2, 15]: +8.0% | body weight, least squares mean ± SEM corrected by initial weight [2, 15]: 1420.5 ± 19.6 g | body weight, percent increased as compared with control [2, 15]: +3.2% | body weight gain, percent increased as compared with control [2, 16]: +13.1% | body weight, percent increased as compared with control [2, 16]: +6.0% | body weight gain [2, 17]: 856.2 ± 24.8 g | body weight, least squares mean ± SEM corrected by initial weight [2, 17]: 1693.7 ± 24.6 g | body weight, percent increased as compared with control ([2]; 1.0 μg/bird daily intravenous, day 17 after start of treatment): +6.3% | body weight gain, percent increased as compared with control ([2]; 1.0 μg/bird daily intravenous, day 17 after start of treatment (end of experiment)): 12.0% | body weight gain [2, 18]: 1041.2 ± 27.6 g | body weight, least squares mean ± SEM corrected by initial weight [2, 18]: 1878.8 ± 27.6 g | body weight compared with birds receiving saline injections (in words) [2, 19]: increased body weight significantly | body weight gain as compared with control (in words) [2, 19]: significant increase | body weight gain [2, 20]: 181.6 ± 8.7 g | body weight gain, percent increased as compared with control [2, 20]: +6.4% | body weight, least squares mean ± SEM corrected by initial weight [2, 20]: 1019.2 ± 8.7 g | body weight, percent increased as compared with control [2, 20]: +1.1% | body weight gain [2, 21]: 399.3 ± 13.1 g | body weight gain, percent increased as compared with control [2, 21]: +6.7% | body weight, least squares mean ± SEM corrected by initial weight [2, 21]: 1236.9 ± 13.1 g | body weight, percent increased as compared with control [2, 21]: +2.1% | body weight gain [2, 22]: 584.0 ± 7.6 g | body weight gain, percent increased as compared with control [2, 22]: +8.2% | body weight, least squares mean ± SEM corrected by initial weight [2, 22]: 1421.6 ± 17.6 g | body weight, percent increased as compared with control [2, 22]: +3.2% | body weight gain, percent increased as compared with control [2, 23]: +12.7% | body weight, percent increased as compared with control [2, 23]: +5.8% | body weight gain [2, 24]: 853.3 ± 22.2 g | body weight, least squares mean ± SEM corrected by initial weight [2, 24]: 1690.8 ± 22.0 g | body weight, percent increased as compared with control ([2]; 10 μg/bird daily intravenous, day 17 after start of treatment): +6.5% | body weight gain [2, 25]: 1044.9 ± 24.7 g | body weight, least squares mean ± SEM corrected by initial weight [2, 25]: 1882.5 ± 24.7 g | body weight compared with birds receiving saline injections (in words) [2, 26]: increased body weight significantly | body weight gain as compared with control (in words) [2, 26]: significant increase
